target: T1, enzyme alcohol dehydrogenase (Saccharomyces cerevisiae, UniProt P00330); experiment: Test of inhibition of the activity of the enzyme alcohol dehydrogenase (Sigma Diagnostics kit ref. 333-B); type: biochemical; conditions: inhibitor 10^-3 M in the final mixture; 10 μl ethanol solution 0.08% w/v; incubated 10 minutes at room temperature; reference = 100
T1 construct: purchased Sigma Diagnostics 333-B
T1 sequence (P00330 1-348): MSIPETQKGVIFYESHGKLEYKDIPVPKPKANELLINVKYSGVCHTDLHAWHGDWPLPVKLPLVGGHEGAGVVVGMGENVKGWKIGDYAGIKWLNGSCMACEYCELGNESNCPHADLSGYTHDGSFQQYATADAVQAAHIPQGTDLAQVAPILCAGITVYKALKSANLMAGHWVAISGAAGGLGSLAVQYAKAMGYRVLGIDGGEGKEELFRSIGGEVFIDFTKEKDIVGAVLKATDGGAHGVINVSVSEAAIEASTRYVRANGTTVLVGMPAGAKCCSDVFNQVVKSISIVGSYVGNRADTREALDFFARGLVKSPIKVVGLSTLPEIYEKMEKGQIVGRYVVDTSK
Method: Test of Inhibition of the Activity of the Enzyme Alcohol Dehydrogenase
The inhibition of the activity of the enzyme alcohol dehydrogenase was determined using a Sigma Diagnostics kit (ref. 333-B).
3 ml of the Alcohol Reagent, 10 μl of ethanol solution (0.08% ethanol w/v ref. 330-20) and 10 μl of inhibitor solution in distilled water are incubated for 10 minutes at room temperature.
For each assay, a blank consisting of 3 ml of the Alcohol Reagent, 10 μl of distilled water and 10 μl of inhibitor solution in distilled water is prepared.
The inhibitors are diluted so as to be at a concentration of 10^−3 M in the final mixture.
After incubation of the mixture, 100 μl are taken up and read over a 10-minute interval at 340 nm. The readings are performed in 96-well UV microplates using a UV-visible multiwell spectrophotometer (Spectramax Plus—Molecular Devices) against the blank.
The inhibition results are expressed as a percentage of absorbance at 340 nm relative to a reference (no inhibitor in the mixture): […]

Row | SMILES | percentage of absorbance at 340 nm relative to a reference (no inhibitor in the mixture) [%]
1 | Cc1cn[nH]c1 [4-Methylpyrazole] | 35
2 | CCn1nc(C)c(N)c1N [2-Ethyl-5-methyl-2H-3,4-diaminopyracole] | 31
3 | OCC(Cl)(Cl)Cl [2,2,2-Trichloroethanol] | -12

Continued, values first:

Row | percentage of absorbance at 340 nm relative to a reference (no inhibitor in the mixture) [%] | SMILES
4 | 32 | c1c[nH]cn1 [Imidazole]
5 | 16 | c1cn[nH]c1 [Pyrazole]

From patent US20030138390A1, “Use of alcohol dehydrogenase inhibitors for cosmetic treatment of keratinous materials” (priority 2000, published 2003)
